From patent US20230085307A1, “PYRIDAZINONE COMPOUND AND HERBICIDE” (NISSAN CHEMICAL CORPORATION, priority 2019, published 2023)

What was measured:
barnyard grass [1] = test: Test Example 4: herbicidal effect by soil treatment (Table 19, symbol H); format: in vivo, barnyard grass (Echinochloa crus-galli); details: amount of applied herbicide 320 g/ha
Outline: (§1)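 Scoring uses the grading scale of an earlier test, three weeks post-application. Treatment consists of spraying a diluted emulsion formulation across the surface of sterilized diluvial soil in which seeds are buried near 1.5 cm deep; boxes are kept in a greenhouse between 25° C. and 30° C.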

velvetleaf [2] = test: Test Example 5: herbicidal effect by foliage application, plastic box (Table 20, symbol M); format: in vivo, velvetleaf (Abutilon theophrasti); details: 320 g/ha, foliage application after 14-day growth, evaluated three weeks after application
Outline: (§2)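 Post-emergence foliar test in sterilized diluvial soil. Compound applied as water-diluted emulsion at a predetermined rate to 14-day-old plants; evaluation at three weeks.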

chickweed [3] = test: Test Example 4: herbicidal effect by soil treatment (Table 19, symbol P); format: in vivo, common chickweed (Stellaria media); details: amount of applied herbicide 320 g/ha
Outline: as §1

wild oat [4] = test: Test Example 5: herbicidal effect by foliage application, plastic box (Table 20, symbol I); format: in vivo, wild oat (Avena fatua); details: 320 g/ha, foliage application after 14-day growth, evaluated three weeks after application
Outline: as §2

windgrass [5] = test: Test Example 5: herbicidal effect by foliage application, plastic box (Table 20, symbol L); format: in vivo, windgrass (Apera spica-venti); details: 320 g/ha, foliage application after 14-day growth, evaluated three weeks after application
Outline: as §2

Italian ryegrass [6] = test: Test Example 5: herbicidal effect by foliage application, plastic box (Table 20, symbol K); format: in vivo, Italian ryegrass (Lolium multiflorum); details: 320 g/ha, foliage application after 14-day growth, evaluated three weeks after application
Outline: as §2

Italian ryegrass [7] = test: Test Example 4: herbicidal effect by soil treatment (Table 19, symbol K); format: in vivo, Italian ryegrass (Lolium multiflorum); details: amount of applied herbicide 320 g/ha
Outline: as §1

velvetleaf [8] = test: Test Example 4: herbicidal effect by soil treatment (Table 19, symbol M); format: in vivo, velvetleaf (Abutilon theophrasti); details: amount of applied herbicide 320 g/ha
Outline: as §1

barnyard grass [9] = test: Test Example 3: herbicidal effect by foliage application, Wagner pot (Table 18, symbol H); format: in vivo, barnyard grass (Echinochloa crus-galli); details: 320 g/ha
Outline: (§3)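 Plants were sown in alluvial soil held under 0.1–0.5 cm standing water and grown 14 days in a greenhouse at 25–30 °C. An emulsifiable formulation, water-diluted to the set dose, was then sprayed onto the foliage, and effects were scored three weeks later using previously defined criteria.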

redroot pigweed [10] = test: Test Example 5: herbicidal effect by foliage application, plastic box (Table 20, symbol N); format: in vivo, redroot pigweed (Amaranthus retroflexus); details: 320 g/ha, foliage application after 14-day growth, evaluated three weeks after application
Outline: as §2

barnyard grass [11] = test: Test Example 5: herbicidal effect by foliage application, plastic box (Table 20, symbol H); format: in vivo, barnyard grass (Echinochloa crus-galli); details: 320 g/ha, foliage application after 14-day growth, evaluated three weeks after application
Outline: as §2

chickweed [12] = test: Test Example 5: herbicidal effect by foliage application, plastic box (Table 20, symbol P); format: in vivo, common chickweed (Stellaria media); details: 320 g/ha, foliage application after 14-day growth, evaluated three weeks after application
Outline: as §2

southern crabgrass [13] = test: Test Example 5: herbicidal effect by foliage application, plastic box (Table 20, symbol F); format: in vivo, southern crabgrass (Digitaria ciliaris); details: 320 g/ha, foliage application after 14-day growth, evaluated three weeks after application
Outline: as §2

rice flat sedge = test: Test Example 3: herbicidal effect by foliage application, Wagner pot (Table 18, symbol E); format: in vivo, rice flat sedge (Cyperus iria); details: 320 g/ha
Outline: as §3

southern crabgrass [14] = test: Test Example 4: herbicidal effect by soil treatment (Table 19, symbol F); format: in vivo, southern crabgrass (Digitaria ciliaris); details: amount of applied herbicide 320 g/ha
Outline: as §1

persian speedwell [15] = test: Test Example 4: herbicidal effect by soil treatment (Table 19, symbol R); format: in vivo, Persian speedwell (Veronica persica); details: amount of applied herbicide 320 g/ha
Outline: as §1

green foxtail [16] = test: Test Example 4: herbicidal effect by soil treatment (Table 19, symbol G); format: in vivo, green foxtail (Setaria viridis); details: amount of applied herbicide 320 g/ha
Outline: as §1

lambsquarters [17] = test: Test Example 4: herbicidal effect by soil treatment (Table 19, symbol O); format: in vivo, lambsquarters (Chenopodium album); details: amount of applied herbicide 320 g/ha
Outline: as §1

Chinese sprangletop = test: Test Example 3: herbicidal effect by foliage application, Wagner pot (Table 18, symbol D); format: in vivo, chinese sprangletop (Leptochloa chinensis); details: 320 g/ha
Outline: as §3

green foxtail [18] = test: Test Example 5: herbicidal effect by foliage application, plastic box (Table 20, symbol G); format: in vivo, green foxtail (Setaria viridis); details: 320 g/ha, foliage application after 14-day growth, evaluated three weeks after application
Outline: as §2

persian speedwell [19] = test: Test Example 5: herbicidal effect by foliage application, plastic box (Table 20, symbol R); format: in vivo, Persian speedwell (Veronica persica); details: 320 g/ha, foliage application after 14-day growth, evaluated three weeks after application
Outline: as §2

redroot pigweed [20] = test: Test Example 4: herbicidal effect by soil treatment (Table 19, symbol N); format: in vivo, redroot pigweed (Amaranthus retroflexus); details: amount of applied herbicide 320 g/ha
Outline: as §1

lambsquarters [21] = test: Test Example 5: herbicidal effect by foliage application, plastic box (Table 20, symbol O); format: in vivo, lambsquarters (Chenopodium album); details: 320 g/ha, foliage application after 14-day growth, evaluated three weeks after application
Outline: as §2

blackgrass = test: Test Example 5: herbicidal effect by foliage application, plastic box (Table 20, symbol J); format: in vivo, blackgrass (Alopecurus myosuroides); details: 320 g/ha, foliage application after 14-day growth, evaluated three weeks after application
Outline: as §2

wild oat [22] = test: Test Example 4: herbicidal effect by soil treatment (Table 19, symbol I); format: in vivo, wild oat (Avena fatua); details: amount of applied herbicide 320 g/ha
Outline: as §1

windgrass [23] = test: Test Example 4: herbicidal effect by soil treatment (Table 19, symbol L); format: in vivo, windgrass (Apera spica-venti); details: amount of applied herbicide 320 g/ha
Outline: as §1

SMILES | Herbicidal effect by soil treatment, H: barnyard grass (barnyard grass [1]) | herbicidal effect on M: velvetleaf (evaluation grade 0-5) (velvetleaf [2]) | Herbicidal effect by soil treatment, P: chickweed (chickweed [3]) | herbicidal effect on I: wild oat (evaluation grade 0-5) (wild oat [4]) | herbicidal effect on L: windgrass (evaluation grade 0-5) (windgrass [5]) | herbicidal effect on K: Italian ryegrass (evaluation grade 0-5) (Italian ryegrass [6]) | Herbicidal effect by soil treatment, K: Italian ryegrass (Italian ryegrass [7]) | Herbicidal effect by soil treatment, M: velvetleaf (velvetleaf [8]) | herbicidal effect on barnyard grass (H) (barnyard grass [9]) | herbicidal effect on N: redroot pigweed (evaluation grade 0-5) (redroot pigweed [10]) | herbicidal effect on H: barnyard grass (evaluation grade 0-5) (barnyard grass [11]) | herbicidal effect on P: chickweed (evaluation grade 0-5) (chickweed [12]) | herbicidal effect on F: southern crabgrass (evaluation grade 0-5) (southern crabgrass [13]) | herbicidal effect on rice flat sedge (E) (rice flat sedge) | Herbicidal effect by soil treatment, F: southern crabgrass (southern crabgrass [14]) | Herbicidal effect by soil treatment, R: persian speedwell (persian speedwell [15]) | Herbicidal effect by soil treatment, G: green foxtail (green foxtail [16]) | Herbicidal effect by soil treatment, O: lambsquarters (lambsquarters [17]) | herbicidal effect on Chinese sprangletop (D) (Chinese sprangletop) | herbicidal effect on G: green foxtail (evaluation grade 0-5) (green foxtail [18]) | further results
COc1ccccc1-c1sc2cc(OS(=O)(=O)C(F)(F)F)ccc2c1-c1c(O)c(C)nn(C)c1=O [3-161] | 0 (Herbicidal rate of 5% or less (almost no effect)) | 2 (Herbicidal rate of 20% or more and less than 40%) | 0 (Herbicidal rate of 5% or less (almost no effect)) | 0 (Herbicidal rate of 5% or less (almost no effect)) | 4 (Herbicidal rate of 70% or more and less than 90%) | 4 (Herbicidal rate of 70% or more and less than 90%) | 0 (Herbicidal rate of 5% or less (almost no effect)) | 0 (Herbicidal rate of 5% or less (almost no effect)) | 5 (Herbicidal rate of 90% or more (almost completely withered)) | 4 (Herbicidal rate of 70% or more and less than 90%) | 3 (Herbicidal rate of 40% or more and less than 70%) | 5 (Herbicidal rate of 90% or more (almost completely withered)) | 0 (Herbicidal rate of 5% or less (almost no effect)) | 3 (Herbicidal rate of 40% or more and less than 70%) | 0 (Herbicidal rate of 5% or less (almost no effect)) | 0 (Herbicidal rate of 5% or less (almost no effect)) | 0 (Herbicidal rate of 5% or less (almost no effect)) | 0 (Herbicidal rate of 5% or less (almost no effect)) | 3 (Herbicidal rate of 40% or more and less than 70%) | 3 (Herbicidal rate of 40% or more and less than 70%) | herbicidal effect on R: persian speedwell (evaluation grade 0-5) (persian speedwell [19]): 5 (Herbicidal rate of 90% or more (almost completely withered)); Herbicidal effect by soil treatment, N: redroot pigweed (redroot pigweed [20]): 4 (Herbicidal rate of 70% or more and less than 90%); herbicidal effect on O: lambsquarters (evaluation grade 0-5) (lambsquarters [21]): 3 (Herbicidal rate of 40% or more and less than 70%); herbicidal effect on J: blackgrass (evaluation grade 0-5) (blackgrass): 4 (Herbicidal rate of 70% or more and less than 90%); Herbicidal effect by soil treatment, I: wild oat (wild oat [22]): 0 (Herbicidal rate of 5% or less (almost no effect)); Herbicidal effect by soil treatment, L: windgrass (windgrass [23]): 0 (Herbicidal rate of 5% or less (almost no effect))
Cc1nn(C)c(=O)c(-c2c(-c3ccc(OC(F)F)cc3)sc3c(F)cccc23)c1O [4-046] | 3 (Herbicidal rate of 40% or more and less than 70%) | 5 (Herbicidal rate of 90% or more (almost completely withered)) | 3 (Herbicidal rate of 40% or more and less than 70%) | 4 (Herbicidal rate of 70% or more and less than 90%) | 5 (Herbicidal rate of 90% or more (almost completely withered)) | 5 (Herbicidal rate of 90% or more (almost completely withered)) | 3 (Herbicidal rate of 40% or more and less than 70%) | 3 (Herbicidal rate of 40% or more and less than 70%) | 5 (Herbicidal rate of 90% or more (almost completely withered)) | 5 (Herbicidal rate of 90% or more (almost completely withered)) | 5 (Herbicidal rate of 90% or more (almost completely withered)) | 5 (Herbicidal rate of 90% or more (almost completely withered)) | 0 (Herbicidal rate of 5% or less (almost no effect)) | 5 (Herbicidal rate of 90% or more (almost completely withered)) | 0 (Herbicidal rate of 5% or less (almost no effect)) | 5 (Herbicidal rate of 90% or more (almost completely withered)) | 3 (Herbicidal rate of 40% or more and less than 70%) | 1 (Herbicidal rate of 5% or more and less than 20%) | 1 (Herbicidal rate of 5% or more and less than 20%) | 5 (Herbicidal rate of 90% or more (almost completely withered)) | herbicidal effect on R: persian speedwell (evaluation grade 0-5) (persian speedwell [19]): 5 (Herbicidal rate of 90% or more (almost completely withered)); Herbicidal effect by soil treatment, N: redroot pigweed (redroot pigweed [20]): 5 (Herbicidal rate of 90% or more (almost completely withered)); herbicidal effect on O: lambsquarters (evaluation grade 0-5) (lambsquarters [21]): 5 (Herbicidal rate of 90% or more (almost completely withered)); herbicidal effect on J: blackgrass (evaluation grade 0-5) (blackgrass): 4 (Herbicidal rate of 70% or more and less than 90%); Herbicidal effect by soil treatment, I: wild oat (wild oat [22]): 0 (Herbicidal rate of 5% or less (almost no effect)); Herbicidal effect by soil treatment, L: windgrass (windgrass [23]): 0 (Herbicidal rate of 5% or less (almost no effect))
